Results reported in US9296734B2 (AMGEN INC., priority 2013, dated 2016).
Where two headings read alike, the source gives them in different places.

Experiments:
Cathepsin D (Cat D) = Cathepsin D (Cat D) (Homo sapiens (Human), UniProt P07339); test: In vitro enzymatic Cathepsin D (Cat D) FRET assay; assay type: biochemical; conditions: read-out: CatD IC50
Outline: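 CHO-expressed recombinant Cat D cleaves a fluorophore/quencher FRET peptide (20 nM) in 0.05 M citrate pH 3.5, 5 mM CHAPS, 10% DMSO final, over 1 h. Tris addition neutralizes pH to stop the reaction; fluorescence read at excitation 500 nm, emission 580 nm.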

[1] = test system: Aβ40 in conditioned medium of cells stably expressing Amyloid Precursor Protein (APP); test: In vitro BACE cell-based assay (Aβ40 sandwich ELISA); conditions: Homo sapiens
Experimental: In Vitro BACE Cell-Based Assay
The cell-based assay measures inhibition or reduction of Aβ40 in conditioned medium of test compound treated cells expressing amyloid precursor protein.
Cells stably expressing Amyloid Precursor Protein (APP) were plated at a density of 40K cells/well in 96 well plates (Costar). The cells were cultivated for 24 hours at 37° C. and 5% CO2 in DMEM supplemented with 10% FBS. The test compounds were then added to cells in 10-point dose response concentrations with the starting concentration being either 100 μM or 10 μM. The compounds were diluted from stock solutions in DMSO and the final DMSO concentration of the test compounds on cells was 0.1%. After 24 h of incubation with the test compounds the supernatant conditioned media was collected and the Aβ 40 levels were determined using a sandwich ELISA. The IC50 of the compound was calculated from the percent of control or percent inhibition of Aβ 40 as a function of the concentration of the test compound.
The sandwich ELISA to detect Aβ 40 was performed in 96 well microtiter plates, which were pre-treated with goat anti-rabbit IgG (Pierce). The capture and detecting antibody pair that were used to detect Aβ 40 from cell supernatants were affinity purified pAb40 (Biosource) and biotinylated 6E10 (Signet Labs Inc.), respectively. The optimal concentration for the pAb40 antibody was 3 μg/ml in Superblock/TBS (Pierce) that was supplemented with 0.05% Tween 20 (Sigma).
Cellular supernatants were incubated with the capture antibody for 3 h at 4° C., followed by 3 wash steps in TBS-tween (0.05%). The detecting antibody incubation was for 2 h at 4° C., again followed by the wash steps as described previously. The final readout of the ELISA is Time-Resolved Fluorescence (counts per minute) using Delfia reagents Streptavidin-Europium and Enhancement solutions (Perkin Elmer) and the Victor 2 multilabel counter (Perkin Elmer).

[2] = molecular target: Beta Secretase enzyme (BACE) (Homo sapiens (Human), UniProt P56817); test: In vitro enzymatic BACE FRET assay; assay type: biochemical; conditions: read-out: BACE 1 FRET assay IC50
Chain of Beta Secretase enzyme (BACE) (P56817 46-501): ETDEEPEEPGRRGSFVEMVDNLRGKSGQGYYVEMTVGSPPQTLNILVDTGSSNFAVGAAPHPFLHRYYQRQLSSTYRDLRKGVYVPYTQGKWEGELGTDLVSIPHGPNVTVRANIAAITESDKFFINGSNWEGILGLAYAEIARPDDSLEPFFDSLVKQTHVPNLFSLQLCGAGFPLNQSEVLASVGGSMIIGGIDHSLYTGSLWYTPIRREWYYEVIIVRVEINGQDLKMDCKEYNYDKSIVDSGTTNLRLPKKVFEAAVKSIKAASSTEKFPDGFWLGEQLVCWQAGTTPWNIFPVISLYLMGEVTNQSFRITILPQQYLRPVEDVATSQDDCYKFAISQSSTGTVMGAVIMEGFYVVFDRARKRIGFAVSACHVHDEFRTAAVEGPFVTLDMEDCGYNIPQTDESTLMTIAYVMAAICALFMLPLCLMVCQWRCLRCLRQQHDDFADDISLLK
Experimental: In Vitro Enzymatic BACE FRET (Fluorescence Resonance Energy Transfer) Assay (Enzyme Assay Data in the Example Table I)
The assay buffer used in this screen is 0.05 M acetate, pH 4.2, 10% DMSO final, 100 uM genapol (which is a nonionic detergent, below its Critical Micelle Concentration). […] This assay is effectively started by the addition of FRET substrate (50 nM) and the combination is incubated for one hour. The FRET assay is terminated with by addition of Tris buffer, which raises the pH to neutrality, and the fluorescence is determined. The FRET substrate is a peptide with commercially available fluorophore and quencher, on opposite sides of the BACE cleavage site.

[3] = HEK293, average IC50, HEK cells, read-out: HEK cell assay IC50
[4] = HEK293, read-out: HEK cell assay IC50
[5] = average IC50, cathepsin D enzyme assay
[6] = HEK293, average IC50, HEK cell assay, read-out: HEK cell assay IC50
[7] = average IC50, BACE enzyme assay

Chain of Cathepsin D (Cat D) (P07339 65-412, species assumed): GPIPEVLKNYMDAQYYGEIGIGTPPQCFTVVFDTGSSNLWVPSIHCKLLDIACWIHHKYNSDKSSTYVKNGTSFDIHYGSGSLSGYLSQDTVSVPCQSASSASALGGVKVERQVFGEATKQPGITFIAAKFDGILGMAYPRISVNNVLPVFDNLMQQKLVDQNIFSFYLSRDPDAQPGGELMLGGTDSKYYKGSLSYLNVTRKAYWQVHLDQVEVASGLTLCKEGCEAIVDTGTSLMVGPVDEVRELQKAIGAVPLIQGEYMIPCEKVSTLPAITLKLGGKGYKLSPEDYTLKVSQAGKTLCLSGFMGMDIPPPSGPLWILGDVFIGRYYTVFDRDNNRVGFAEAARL

| IC50 (Cathepsin D (Cat D); average IC50) | IC50 [1, 3] | IC50 ([2]; average IC50) | IC50 (Cathepsin D (Cat D); [5]) | IC50 [1, 6] | IC50 [2, 7] | SMILES | IC50 [1, 4] |
| --- | --- | --- | --- | --- | --- | --- | --- |
| > 400 µM | 0.372 µM | 0.05 µM |  |  |  | COc1cnc2c(Nc3ccc(F)c([C@]4(CF)C[C@@H](C(F)(F)F)OC(N)=N4)c3)nccc2n1 (racemic) [Example 9, (4S,6S)-4-(2-fluoro-5-((2-methoxypyrido[3,4-b]pyrazin-5-yl)amino)phenyl)-4-(fluoromethyl)-6-(trifluoromethyl)-5,6-dihydro-4H-1,3-oxazin-2-amine] |  |
| > 400 µM | 0.263 µM | 0.043 µM |  |  |  | NC1=N[C@](CF)(c2cc(NC(=O)c3ccc(OCC(F)(F)F)cn3)ccc2F)C[C@@H](C(F)(F)F)O1 [Example 5, N-(3-((4S,6S)-2-amino-4-(fluoromethyl)-6-(trifluoromethyl)-5,6-dihydro-4H-1,3-oxazin-4-yl)-4-fluorophenyl)-5-(2,2,2-trifluoroethoxy)picolinamide] |  |
| > 400 µM | 0.0522 µM | 0.036 µM |  |  |  | Cc1c(C(=O)Nc2ccc(F)c([C@]3(CF)C[C@@H](C(F)(F)F)OC(N)=N3)c2)nc2ccc(Cl)cn12 [Example 6, N-(3-((4S,6S)-2-amino-4-(fluoromethyl)-6-(trifluoromethyl)-5,6-dihydro-4H-1,3-oxazin-4-yl)-4-fluorophenyl)-6-chloro-3-methylimidazo[1,2-a]pyridine-2-carboxamide] |  |
| > 400 µM | 0.888 µM | 1.52 µM |  |  |  | Cc1c(C(=O)Nc2ccc(F)c([C@]3(CF)C[C@@H](C(F)(F)F)OC(N)=N3)c2)nc2ccccn12 [Example 7, N-(3-((4S,6S)-2-amino-4-(fluoromethyl)-6-(trifluoromethyl)-5,6-dihydro-4H-1,3-oxazin-4-yl)-4-fluorophenyl)-3-methylimidazo[1,2-a]pyridine-2-carboxamide] |  |
| > 400 µM | 0.203 µM | 0.018 µM |  |  |  | NC1=N[C@](CF)(c2cc(Nc3nccc4cc(Cl)cnc34)ccc2F)C[C@@H](C(F)(F)F)O1 [Example 8, (4S,6S)-4-(5-((3-chloro-1,7-naphthyridin-8-yl)amino)-2-fluorophenyl)-4-(fluoromethyl)-6-(trifluoromethyl)-5,6-dihydro-4H-1,3-oxazin-2-amine] |  |
|  |  |  | 879 µM | 0.758 µM | 0.574 µM | NC1=N[C@](CF)(c2cc(Nc3ncccc3F)ccc2F)C[C@@H](C(F)(F)F)O1 [Example 14, (4S,6S)-4-(2-fluoro-5-((3-fluoropyridin-2-yl)-amino)phenyl)-4-(fluoromethyl)-6-(trifluoromethyl)-5,6-dihydro-4H-1,3-oxazin-2-amine] |  |
|  |  |  | 469 µM | 4.34 µM | 6.49 µM | NC1=N[C@](CF)(c2cc(Nc3ccnc(Br)c3)ccc2F)C[C@@H](C(F)(F)F)O1 [Example 17, (4S,6S)-4-(5-((2-bromopyridin-4-yl)amino)-2-fluorophenyl)-4-(fluoromethyl)-6-(trifluoromethyl)-5,6-dihydro-4H-1,3-oxazin-2-amine] |  |
|  |  |  | > 14.8 µM | 0.336 µM | 0.118 µM | NC1=N[C@](CF)(c2cc(Nc3nccc4nc(C(F)(F)F)cnc34)ccc2F)C[C@@H](C(F)(F)F)O1 [Example 18, (4S,6S)-4-(2-fluoro-5-((2-(trifluoromethyl)pyrido[3,4-b]pyrazin-5-yl)amino)phenyl)-4-(fluoromethyl)-6-(trifluoromethyl)-5,6-dihydro-4H-1,3-oxazin-2-amine] |  |
| > 133 µM | 0.057 µM | 0.021 µM |  |  |  | N#Cc1cnc2c(Nc3ccc(F)c([C@]4(CF)C[C@@H](C(F)(F)F)OC(N)=N4)c3)nccc2c1 [Example 22, 8-((3-((4S,6S)-2-amino-4-(fluoromethyl)-6-(trifluoromethyl)-5,6-dihydro-4H-1,3-oxazin-4-yl)-4-fluorophenyl)amino)-1,7-naphthyridine-3-carbonitrile] |  |
|  |  |  | 1760 µM | 7 µM | 19 µM | N#Cc1cc(Nc2ccc(F)c([C@]3(CF)C[C@@H](C(F)(F)F)OC(N)=N3)c2)ccn1 [Example 24, 4-((3-((4S,6S)-2-amino-4-(fluoromethyl)-6-(trifluoromethyl)-5,6-dihydro-4H-1,3-oxazin-4-yl)-4-fluorophenyl)amino)picolinonitrile] |  |
| > 400 µM | 0.0049 µM | 0.0123 µM |  |  |  | C[C@@]1(c2cc(NC(=O)c3ccc(Cl)cn3)ccc2F)C[C@@H](C(F)(F)F)OC(N)=N1 [Example 26, N-(3-((4S,6S)-2-amino-4-methyl-6-(trifluoromethyl)-5,6-dihydro-4H-1,3-oxazin-4-yl)-4-fluorophenyl)-5-chloropicolinamide] |  |
| > 400 µM |  | 0.03 µM |  |  |  | COc1cnc(C(=O)Nc2ccc(F)c([C@]3(C)C[C@@H](C(F)(F)F)OC(N)=N3)c2)cn1 [Example 27, N-(3-((4S,6S)-2-amino-4-methyl-6-(trifluoromethyl)-5,6-dihydro-4H-1,3-oxazin-4-yl)-4-fluorophenyl)-5-methoxypyrazine-2-carboxamide] |  |
|  |  |  | 666 µM | 0.0093 µM | 0.0176 µM | C#CCOc1ccc(C(=O)Nc2ccc(F)c([C@]3(C)C[C@@H](C(F)(F)F)OC(N)=N3)c2)nc1 [Example 28, N-(3-((4S,6S)-2-amino-4-methyl-6-(trifluoromethyl)-5,6-dihydro-4H-1,3-oxazin-4-yl)-4-fluorophenyl)-5-(prop-2-yn-1-yloxy)picolinamide] |  |
|  |  |  | 210 µM | 3.01 µM | > 40 µM | C[C@@]1(c2cc(Nc3nc4ccc(Cl)cc4o3)ccc2F)C[C@@H](C(F)(F)F)OC(N)=N1 [Example 29, N-(3-((4S,6S)-2-amino-4-methyl-6-(trifluoromethyl)-5,6-dihydro-4H-1,3-oxazin-4-yl)-4-fluorophenyl)-6-chlorobenzo[d]oxazol-2-amine] |  |
|  |  |  | 162 µM | 2.88 µM | 26.8 µM | C[C@@]1(c2cc(Nc3nc4cc(Cl)ccc4o3)ccc2F)C[C@@H](C(F)(F)F)OC(N)=N1 [Example 30, N-(3-((4S,6S)-2-amino-4-methyl-6-(trifluoromethyl)-5,6-dihydro-4H-1,3-oxazin-4-yl)-4-fluorophenyl)-5-chlorobenzo[d]oxazol-2-amine] |  |
|  |  |  | > 400 µM | 0.042 µM | 0.051 µM | NC1=N[C@](CF)(c2cc(NC(=O)c3ncc(Cl)cc3F)ccc2F)C[C@@H](C(F)(F)F)O1 [Example 34, N-(3-((4S,6S)-2-amino-4-(fluoromethyl)-6-(trifluoromethyl)-5,6-dihydro-4H-1,3-oxazin-4-yl)-4-fluorophenyl)-5-chloro-3-fluoropicolinamide] |  |

| SMILES | IC50 (Cathepsin D (Cat D); average IC50) | IC50 [1, 3] | IC50 ([2]; average IC50) | IC50 (Cathepsin D (Cat D); [5]) | IC50 [1, 6] | IC50 [2, 7] | IC50 [1, 4] |
| --- | --- | --- | --- | --- | --- | --- | --- |
| Cc1cc(Cl)cnc1C(=O)Nc1ccc(F)c([C@]2(CF)C[C@@H](C(F)(F)F)OC(N)=N2)c1 [Example 4, N-(3-((4S,6S)-2-amino-4-(fluoromethyl)-6-(trifluoromethyl)-5,6-dihydro-4H-1,3-oxazin-4-yl)-4-fluorophenyl)-5-chloro-3-methylpicolinamide] | > 400 µM |  | 0.008 µM |  |  |  | 0.031 µM |
| NC1=N[C@](CF)(c2cc(Nc3nccc4cn(C(F)F)nc34)ccc2F)C[C@@H](C(F)(F)F)O1 [Example 20, (4S,6S)-4-(5-((2-(difluoromethyl)-2H-pyrazolo[3,4-c]pyridin-7-yl)amino)-2-fluorophenyl)-4-(fluoromethyl)-6-(trifluoromethyl)-5,6-dihydro-4H-1,3-oxazin-2-amine 2,2,2-trifluoroacetate] |  |  |  | > 400 µM |  | 33 µM | 10.6 µM |
| NC1=N[C@](CF)(c2cc(Oc3cc(-c4ccccc4)ccn3)ccc2F)C[C@@H](C(F)(F)F)O1 [Example 102, (4S,6S)-4-(2-fluoro-5-((4-phenylpyridin-2-yl)oxy)phenyl)-4-(fluoromethyl)-6-(trifluoromethyl)-5,6-dihydro-4H-1,3-oxazin-2-amine] | 114 µM |  |  |  |  |  | 2.82 µM |
